Our source for the inhibition and melting point values is US20040092401A1, “Novel alpha-sulfin and alpha-sulfonamino amide derivatives” (priority 2000, published 2004).

Molecules are shown by their SMILES. Where two headings read alike, the source gives them in different places. Bounds are passed on as bounds.

One series relates to Plasmopara viticola. Particulars: read-out: inhibit fungal infestation.
The subject of series [1] is Phytophthora (late blight). The experiment in a line: whole plant or invertebrate. The series is classed as in vivo. Particulars: in Solanum tuberosum, read-out: inhibit fungal infestation.
Series [2] relates to Phytophthora (late blight). The experiment in a line: whole plant or invertebrate. The series is classed as in vivo. The note with it: in Solanum lycopersicum, read-out: inhibit fungal infestation.

Protocol for Plasmopara viticola: 5 week old grape seedlings cv. Gutedel are treated with the formulated test compound in a spray chamber. One day after application grape plants are inoculated by spraying a sporangia suspension (4×104 sporangia/ml) on the lower leaf side of the test plants. After an incubation period of 6 days at +21° C. and 95% r. h. in a greenhouse the disease incidence is assessed.

As to `CCS(=O)(=O)N[C@H](C(=O)NCCc1ccc(OCC#Cc2ccc(Cl)cc2)cc1)C(C)C` [Compound A1.1, (S)-2-Ethanesulfonylamino-N-(2-{4-[3-(4-chloro-phenyl)-propargyloxvy]-phenyl}-ethyl)-3-methyl-butyramide], the inhibition at 200 ppm (in the series on Plasmopara viticola; in series [1]; in series [2]) was at least 80% in each case.

As to `CCS(=O)(=O)N[C@H](C(=O)NCCc1ccc(OCc2ccccc2)cc1)C(C)C`, the melting point was in the range of 133 to 134 °C.

The term melting point denotes the temperature, or range, at which the solid turns liquid.
